Source: patent publication US10696615B2, “Prenylated hydroxystilbenes” (The University of Sydney, priority 2011, dated 2020)

Assays:
Format in all cases: cell-based, human
[1] = system: CCRF-CEM; assay: NCI in vitro cancer screen, Leukemia
[2] = system: K-562; assay: NCI in vitro cancer screen, Leukemia; conditions: K-562
[3] = system: A549/ATCC; assay: NCI in vitro cancer screen, Non-Small Cell Lung Cancer
[4] = system: NCI-H23; assay: as above; conditions: NCI-H23
[5] = system: NCI-H322M; assay: as above
[6] = system: NCI-H460; assay: as above; conditions: NCI-H460
[7] = system: HT29; assay: NCI in vitro cancer screen, Colon Cancer; conditions: HT29
[8] = system: KM12; assay: NCI in vitro cancer screen, Colon Cancer; conditions: KM12
[9] = system: SW-620; assay: NCI in vitro cancer screen, Colon Cancer; conditions: SW-620
[10] = system: SF-295; assay: NCI in vitro cancer screen, CNS Cancer; conditions: SF-295
[11] = system: SNB-19; assay: NCI in vitro cancer screen, CNS Cancer; conditions: SNB-19
[12] = system: SNB-75; assay: NCI in vitro cancer screen, CNS Cancer; conditions: SNB-75
[13] = system: U251; assay: NCI in vitro cancer screen, CNS Cancer; conditions: U251
[14] = system: MDA-MB-435; assay: NCI in vitro cancer screen, Melanoma; conditions: MDA-MB-435
[15] = system: SK-MEL-2; assay: NCI in vitro cancer screen, Melanoma; conditions: SK-MEL-2
[16] = system: SK-MEL-28; assay: NCI in vitro cancer screen, Melanoma; conditions: SK-MEL-28
[17] = system: SK-MEL-5; assay: NCI in vitro cancer screen, Melanoma; conditions: SK-MEL-5
[18] = system: UACC-62; assay: NCI in vitro cancer screen, Melanoma; conditions: UACC-62
[19] = system: OVCAR-3; assay: NCI in vitro cancer screen, Ovarian Cancer; conditions: OVCAR-3
[20] = system: OVCAR-5; assay: NCI in vitro cancer screen, Ovarian Cancer; conditions: OVCAR-5
[21] = system: OVCAR-8; assay: NCI in vitro cancer screen, Ovarian Cancer; conditions: OVCAR-8
[22] = system: SK-OV-3; assay: NCI in vitro cancer screen, Ovarian Cancer; conditions: SK-OV-3
[23] = system: ACHN; assay: NCI in vitro cancer screen, Renal Cancer
[24] = system: RXF-393; assay: NCI in vitro cancer screen, Renal Cancer; conditions: RXF-393
[25] = system: TK-10; assay: NCI in vitro cancer screen, Renal Cancer; conditions: TK-10
[26] = system: UO-31; assay: NCI in vitro cancer screen, Renal Cancer; conditions: UO-31
[27] = system: PC-3; assay: NCI in vitro cancer screen, Prostate Cancer; conditions: PC-3
[28] = system: DU-145; assay: NCI in vitro cancer screen, Prostate Cancer; conditions: DU-145
[29] = system: MCF7; assay: NCI in vitro cancer screen, Breast Cancer; conditions: MCF7
[30] = system: T-47D; assay: NCI in vitro cancer screen, Breast Cancer
[31] = system: MDA-MB-468; assay: NCI in vitro cancer screen, Breast Cancer; conditions: MDA-MB-468
[32] = Homo sapiens, read-out: LC50 (the source's name)

Q: What does the source list for `COc1cc(/C=C/c2cc(O)c(CC=C(C)C)c(O)c2)ccc1O` [USYDS13, (E)-4-(3-methyl-2-buten-1-yl)-3,4′,5-trihydroxy-3′-methoxystilbene]?
A: TGI [1]: >100 µM; GI50 ([1]; Homo sapiens): 6.56 µM; CC50 [1, 32]: > 100 µM; GI50 ([2]; Homo sapiens, K562): 4.08 µM; CC50 ([2]; Homo sapiens, K562, read-out: LC50 (the source's name)): > 100 µM; TGI [2]: 57.5 µM; TGI [3]: 20.4 µM; GI50 ([3]; Homo sapiens): 4.01 µM; CC50 [3, 32]: > 100 µM; GI50 ([4]; Homo sapiens): 5.66 µM; LC50 ([4]; Homo sapiens): > 100 µM; TGI [4]: 28.0 µM; TGI [5]: 28.5 µM; GI50 ([5]; Homo sapiens): 5.9 µM; LC50 (50% lethal concentration) ([5]; Homo sapiens): > 100 µM; GI50 ([6]; Homo sapiens): 3.09 µM; CC50 [6, 32]: > 100 µM; TGI [6]: 15.6 µM; TGI [7]: 36.9 µM; GI50 ([7]; Homo sapiens, HT-29): 17.8 µM; CC50 ([7]; Homo sapiens, HT-29, read-out: LC50 (the source's name)): 76.8 µM; GI50 ([8]; Homo sapiens): 3.15 µM; CC50 [8, 32]: 49 µM; TGI [8]: 16.1 µM; GI50 ([9]; Homo sapiens): 3.98 µM; CC50 [9, 32]: 42.8 µM; TGI [9]: 15.9 µM; GI50 ([10]; Homo sapiens): 5.22 µM; CC50 [10, 32]: 77.5 µM; TGI [10]: 23.5 µM; GI50 ([11]; Homo sapiens): 8.02 µM; CC50 [11, 32]: 64.5 µM; TGI [11]: 24.2 µM; GI50 ([12]; Homo sapiens): 5.47 µM; CC50 [12, 32]: > 100 µM; TGI [12]: 36.6 µM; GI50 ([13]; Homo sapiens, U-251): 5.47 µM; CC50 ([13]; Homo sapiens, U-251, read-out: LC50 (the source's name)): 57.6 µM; TGI [13]: 20.7 µM; GI50 ([14]; Homo sapiens): 3.08 µM; CC50 [14, 32]: > 100 µM; TGI [14]: 15.9 µM; GI50 ([15]; Homo sapiens): 3.09 µM; LC50 ([15]; Homo sapiens): 40.2 µM; TGI [15]: 9.37 µM; GI50 ([16]; Homo sapiens): 5.64 µM; LC50 ([16]; Homo sapiens): 70.5 µM; TGI [16]: 22.5 µM; GI50 ([17]; Homo sapiens): 2.5 µM; CC50 [17, 32]: 29.2 µM; TGI [17]: 8.54 µM; GI50 ([18]; Homo sapiens): 5.3 µM; CC50 [18, 32]: 58.8 µM; TGI [18]: 19.7 µM; GI50 ([19]; Homo sapiens): 7.98 µM; CC50 [19, 32]: > 100 µM; TGI [19]: 39.8 µM; GI50 ([20]; Homo sapiens): 13.9 µM; CC50 [20, 32]: > 100 µM; TGI [20]: 79.3 µM; GI50 ([21]; Homo sapiens): 5.48 µM; CC50 [21, 32]: > 100 µM; TGI [21]: 59.8 µM; GI50 ([22]; Homo sapiens): 7.96 µM; CC50 [22, 32]: > 100 µM; TGI [22]: 36.2 µM; TGI [23]: >100 µM; GI50 ([23]; Homo sapiens): 5.11 µM; CC50 [23, 32]: > 100 µM; GI50 ([24]; Homo sapiens): 5.48 µM; CC50 [24, 32]: 46.5 µM; TGI [24]: 18.9 µM; GI50 ([25]; Homo sapiens): 6.98 µM; LC50 ([25]; Homo sapiens): > 100 µM; TGI [25]: 31.4 µM; GI50 ([26]; Homo sapiens): 4.16 µM; CC50 [26, 32]: > 100 µM; TGI [26]: 38.1 µM; GI50 ([27]; Homo sapiens): 6.36 µM; CC50 [27, 32]: > 100 µM; TGI [27]: >100 µM; TGI [28]: 31.6 µM; GI50 ([28]; Homo sapiens): 6.82 µM; CC50 [28, 32]: > 100 µM; GI50 ([29]; Homo sapiens): 0.68 µM; CC50 [29, 32]: 82.7 µM; TGI [29]: 19.9 µM; TGI [30]: 14.7 µM; GI50 ([30]; Homo sapiens, T47D): 2.92 µM; CC50 ([30]; Homo sapiens, T47D, read-out: LC50 (the source's name)): 70.5 µM; GI50 ([31]; Homo sapiens): 1.68 µM; CC50 [31, 32]: > 100 µM; TGI [31]: 7.63 µM
